Measured values as given in patent US12662491B2 (Redona Therapeutics, Inc., priority 2020, dated 2026).
pIC50: −log10 of the molar value. Read-outs that look alike come from different tables or passages of the source.

Molecular target: T1, Zcchc11 enzyme (Homo sapiens, UniProt Q5TAX3)
T1 construct: made in house; host or cells: HEK293 cells (Zcchc11); E. coli Rosetta II (LIN28A)
T1 sequence (Q5TAX3 212-1420): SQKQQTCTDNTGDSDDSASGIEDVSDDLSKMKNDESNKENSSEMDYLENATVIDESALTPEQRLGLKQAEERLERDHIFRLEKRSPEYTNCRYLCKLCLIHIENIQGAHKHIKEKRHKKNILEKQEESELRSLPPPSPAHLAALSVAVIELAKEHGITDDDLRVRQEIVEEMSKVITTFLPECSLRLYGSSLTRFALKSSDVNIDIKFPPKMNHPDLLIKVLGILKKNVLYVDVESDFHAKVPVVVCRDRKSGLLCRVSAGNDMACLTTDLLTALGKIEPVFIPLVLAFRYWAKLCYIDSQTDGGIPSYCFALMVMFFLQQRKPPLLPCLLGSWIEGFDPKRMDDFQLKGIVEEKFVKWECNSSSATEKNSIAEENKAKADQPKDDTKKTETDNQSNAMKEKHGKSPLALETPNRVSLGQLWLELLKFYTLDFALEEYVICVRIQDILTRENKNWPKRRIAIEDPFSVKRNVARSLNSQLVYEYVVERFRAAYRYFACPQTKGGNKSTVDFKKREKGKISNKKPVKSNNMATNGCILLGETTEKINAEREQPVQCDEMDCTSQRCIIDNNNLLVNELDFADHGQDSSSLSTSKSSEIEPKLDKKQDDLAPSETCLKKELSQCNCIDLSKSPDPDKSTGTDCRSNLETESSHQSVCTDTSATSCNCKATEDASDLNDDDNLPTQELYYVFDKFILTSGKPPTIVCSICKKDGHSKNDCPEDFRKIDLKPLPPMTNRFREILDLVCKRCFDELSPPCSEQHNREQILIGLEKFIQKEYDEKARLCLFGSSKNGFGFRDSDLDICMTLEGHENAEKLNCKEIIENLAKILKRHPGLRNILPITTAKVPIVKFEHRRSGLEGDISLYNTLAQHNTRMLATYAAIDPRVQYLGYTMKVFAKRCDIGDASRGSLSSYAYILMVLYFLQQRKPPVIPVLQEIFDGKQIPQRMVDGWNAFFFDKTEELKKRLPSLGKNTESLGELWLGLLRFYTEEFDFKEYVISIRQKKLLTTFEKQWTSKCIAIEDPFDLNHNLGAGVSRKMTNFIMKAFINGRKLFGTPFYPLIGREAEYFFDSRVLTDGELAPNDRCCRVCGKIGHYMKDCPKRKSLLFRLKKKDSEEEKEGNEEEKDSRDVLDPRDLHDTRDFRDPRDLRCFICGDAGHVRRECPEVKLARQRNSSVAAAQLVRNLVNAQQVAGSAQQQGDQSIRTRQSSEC
Assay: TUTase assay (Zcchc11 assay, Lin28a-dependent polyuridylation of pre-let-7)
Assay type: biochemical
Conditions: read-out: Potency Lin28a-dep Z11 IC50
Procedure, shortened: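 Potency is measured as inhibition of LIN28A-driven U-tail addition to 2 nM pre-let-7 by 0.2 nM HEK293-derived Zcchc11 fragment with 5 uM UTP at room temperature. Tail growth appears as fluorescein quenching by an annealing rhodamine-A20 probe.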

[1] = Lin28a-dependent Zcchc11 (Z11) TUTase assay
[2] = Lin28a-dependent Zcchc11 (Z11) TUTase activity
[3] = LIN28A 10 nM, Zcchc11 0.2 nM, 5′-fluorescein pre-let-7 miRNA 2 nM, UTP 5 uM, room temperature, 30 minutes pre-incubation

SMILES	pIC50 [1]	also measured
CN(C)C1CN(c2ccc(-n3cc(C(=O)O)c(=O)c4cc(C#N)c(N5CCC[C@@]5(C)COc5ncccc5F)cc43)cn2)C1 [Compound 285, (S)-6-cyano-1-(6-(3-(dimethyl-amino)azetidin-1-yl)pyridin-3-yl)-7-(2-(((3-fluoropyridin-2-yl)oxy)methyl)-2-methyl-pyrrolidin-1-yl)-4-oxo-1,4-dihydro-quinoline-3-carboxylic acid]		pIC50 [2]: ≥ 6.00
Nc1ccc(-n2cc(C(=O)O)c(=O)c3cc(Cl)c(N4CCC[C@@H]4COc4ncccc4Cl)nc32)cn1 (racemic) [Compound 190, rac-(R)-1-(6-aminopyridin-3-yl)-6-chloro-7-(2-(((3-chloropyridin-2-yl)oxy)methyl)pyrrolidin-1-yl)-4-oxo-1,4-dihydro-1,8-naphthyridine-3-carboxylic acid]		pIC50 [2]: ≥ 6.00
CN(C)C1CN(c2ccc(-n3cc(C(=O)O)c(=O)c4cc(Cl)c(N5CCC5COc5ccccn5)cc43)cn2)C1 (stereo not shown) [Compound 219, 6-chloro-1-[6-[3-(dimethyl-amino)azetidin-1-yl]pyridin-3-yl]-4-oxo-7-[2-[(pyridin-2-yloxy)methyl]azetidin-1-yl]quinoline-3-carboxylic acid]		pIC50 [2]: 5.00 to 6.00
COCCN(C)C1CN(c2ccc(-n3cc(C(=O)O)c(=O)c4cc(F)c(N5CCC[C@@H]5COc5ncccc5Cl)cc43)cn2)C1 [Compound 278, (R)-7-(2-(((3-chloropyridin-2-yl)oxy)methyl)pyrrolidin-1-yl)-6-fluoro-1-(6-(3-((2-methoxyethyl) (methyl)amino)azetidin-1-yl)pyridin-3-yl)-4-oxo-1,4-dihydro-quinoline-3-carboxylic acid]		pIC50 [2]: ≥ 6.00
Cc1cccnc1OC[C@H]1CCCN1c1cc2c(cc1Cl)c(=O)c(C(=O)O)cn2C1CN(C)C1 [Example 458, (R)-6-chloro-1-(1-methylazetidin-3-yl)-7-(2-(((3-methylpyridin-2-yl)oxy)methyl)pyrrolidin-1-yl)-4-oxo-1,4-dihydroquinoline-3-carboxylic acid]	5.00 to 6.00	
O=C(O)c1cn(-c2ccc3c(c2)CNC3)c2cc(N3CCC[C@@H]3COc3ncccc3Cl)c(Cl)cc2c1=O [Compound 236, 6-chloro-7-[(2R)-2-[[(3-chloropyridin-2-yl)oxy]methyl]pyrrolidin-1-yl]-1-(2,3-dihydro-1H-isoindol-5-yl)-4-oxoquinoline-3-carboxylic acid]		pIC50 [2]: ≥ 6.00
COc1ccc(Cl)c(OC[C@H]2C[C@H]3C[C@H]3N2c2cc3c(cc2F)c(=O)c(C(=O)O)cn3-c2ccc(N3CC(N(C)C)C3)nc2)n1 [Example 68, 7-((1R,3R,5R)-3-(((3-chloro-6-methoxypyridin-2-yl)oxy)methyl)-2-azabicyclo[3.1.0]hexan-2-yl)-1-(6-(3-(dimethylamino)azetidin-1-yl)pyridin-3-yl)-6-fluoro-4-oxo-1,4-dihydroquinoline-3-carboxylic acid]		pIC50 [3]: ≥ 6.00
CS(=O)(=O)NC1CCC(n2cc(C(=O)O)c(=O)c3cc(F)c(N4CCC[C@@H]4COc4ccccn4)cc32)CC1 (stereo partly drawn) [Example 360, (R)-6-fluoro-1-(4-(methyl-sulfonamido)cyclo-hexyl)-4-oxo-7-(2-((pyridin-2-yloxy)methyl)pyrrolidin-1-yl)-1,4-dihydro-quinoline-3-carboxylic acid]	5.00 to 6.00	
CN(C)C1CN(c2ccc(-n3cc(C(=O)O)c(=O)c4cc(Cl)c(N5CCC[C@@H]5COc5nc(OC6CC6)ccc5Cl)cc43)cn2)C1 [Example 624, (R)-6-chloro-7-(2-(((3-chloro-6-cyclopropoxy-pyridin-2-yl)oxy)methyl)pyrrolidin-1-yl)-1-(6-(3-(dimethylamino)azetidin-1-yl)pyridin-3-yl)-4-oxo-1,4-dihydroquinoline-3-carboxylic acid]	≥ 6.00	
COc1ccc(Cl)c(OC[C@H]2CC3CC3N2c2cc3c(cc2F)c(=O)c(C(=O)O)cn3-c2ccnc(N)c2)n1 (stereo partly drawn) [Example 66, 1-(2-Aminopyridin-4-yl)-7-((3R)-3-(((3-chloro-6-methoxypyridin-2-yl)oxy)methyl)-2-azabicyclo[3.1.0]hexan-2-yl)-6-fluoro-4-oxo-1,4-dihydroquinoline-3-carboxylic acid]		pIC50 [3]: ≥ 6.00
O=C(O)c1cn(-c2ccc(O)cc2)c2cc(N3CCC[C@@H]3Cn3ccc4ncccc43)c(F)cc2c1=O [Example 11, (R)-7-(2-((1H-pyrrolo[3,2-b]pyridin-1-yl)methyl)pyrroledin-1-yl)-6-fluoro-1-(4-hydroxyphenyl)-4-oxo-1,4-dihydroquinoline-3-carboxylic acid]		pIC50 [3]: ≥ 6.00
O=C(O)c1cn(-c2cnc3c(n2)COC3)c2cc(N3CCC[C@@H]3COc3ncccc3Cl)c(Cl)cc2c1=O [Example 46, 6-chloro-7-[(2R)-2-[[(3-chloropyridin-2-yl)oxy]methyl]pyrrolidin-1-yl]-1-[5H,7H-furo[3,4-b]pyrazin-2-yl]-4-oxoquinoline-3-carboxylic acid]		pIC50 [3]: ≥ 6.00

Continued, in another order:

pIC50 [1]	SMILES	also measured
≥ 6.00	Nc1ncc(-n2cc(C(=O)O)c(=O)c3cc(Cl)c(N4CCC[C@@H]4COc4ncccc4Cl)cc32)cn1 [Example 555, (R)-1-(2-aminopyrimidin-5-yl)-6-chloro-7-(2-(((3-chloropyridin-2-yl)oxy)methyl)pyrrolidin-1-yl)-4-oxo-1,4-dihydroquinoline-3-carboxylic acid]	
≥ 6.00	CN(C)CCn1cc(-n2cc(C(=O)O)c(=O)c3cc(Cl)c(N4CCC[C@@H]4COc4ncccc4Cl)cc32)cn1 [Example 437, (R)-6-chloro-7-(2-(((3-chloropyridin-2-yl)oxy)methyl)pyrrolidin-1-yl)-1-(1-(2-(dimethylamino)ethyl)-1H-pyrazol-4-yl)-4-oxo-1,4-dihydroquinoline-3-carboxylic acid]	
≥ 6.00	O=C(O)c1cn(-c2cnccn2)c2cc(N3CCC[C@@H]3COc3ncccc3Cl)c(Cl)cc2c1=O [Example 425, (R)-6-chloro-7-(2-(((3-chloropyridin-2-yl)oxy)methyl)pyrrolidin-1-yl)-4-oxo-1-(pyrazin-2-yl)-1,4-dihydroquinoline-3-carboxylic acid]	
≥ 6.00	O=C(O)c1cn(-c2cc3cn[nH]c3cn2)c2cc(N3CCC[C@@H]3COc3ncccc3Cl)c(Cl)cc2c1=O [Example 474, (R)-6-chloro-7-(2-(((3-chloropyridin-2-yl)oxy)methyl)pyrrolidin-1-yl)-4-oxo-1-(1H-pyrazolo[3,4-c]pyridin-5-yl)-1,4-dihydroquinoline-3-carboxylic acid]	
≥ 6.00	CN(C)C1CN(c2ccc(-n3cc(C(=O)O)c(=O)c4cc(Cl)c(N5CCC[C@H]5COc5ncccc5Cl)cc43)cn2)C1 [Example 517, (S)-6-chloro-7-(2-(((3-chloropyridin-2-yl)oxy)methyl)pyrrolidin-1-yl)-1-(6-(3-(dimethylamino)azetidin-1-yl)pyridin-3-yl)-4-oxo-1,4-dihydroquinoline-3-carboxylic acid]	
≥ 6.00	O=C(O)c1cn(-c2ccc(O)nc2)c2cc(N3CCC[C@@H]3COc3ncccc3Cl)c(Cl)cc2c1=O [Example 414, (R)-6-chloro-7-(2-(((3-chloropyridin-2-yl)oxy)methyl)pyrrolidin-1-yl)-1-(6-hydroxy-pyridin-3-yl)-4-oxo-1,4-dihydroquinoline-3-carboxylic acid]	
≥ 6.00	O=C(O)c1cn(-c2ccc(NS(=O)(=O)C3CC3)cc2)c2cc(N3CCC[C@@H]3COc3ncccc3Cl)c(Cl)cc2c1=O [Example 472, 6-chloro-7-[(2R)-2-{[(3-chloropyridin-2-yl)oxy)methyl}pyrrolidin-1-yl]-1-(4-cyclopropane-sulfonamido-phenyl)-4-oxo-1,4-dihydroquinoline-3-carboxylic acid]	
